# From patent US20240277617A1, “NANOTECHNOLOGICAL PLATFORM BASED ON POLYURETHANE/POLYUREA CHEMISTRY TO FURNISH WATER-OIL-WATER MULTI WALLED AND FUNCTIONALIZABLE NANOCAPSULES AND THEIR PREPARATION PROCESS” (ECOPOL TECH SL, priority 2021, published 2024)
# Assays:
# [1] = Acute toxicity analysis (haematological and biochemical parameters) after i.v. administration; design: species or system BALB/C mice; settings: mouse, in vivo, iv
# Protocol: Encapsulated non-loaded NCS nanocapsules (cationic and amphoteric nanocapsules) were i.v. administered to female BALB/C mice (8 weeks old; Charles River) at three different doses. Blood and serum samples were obtained at 24 h post-administration for acute toxicity analysis (SBCV and SHCV, Universidad Autónoma de Barcelona).
# Haematological parameters analysed in blood included white blood cells (WBC) count, red blood cells (RBC) count, haemoglobin (HGB), red blood cell specific volume (HCT), mean corpuscular volume (MCV), mean corpuscular haemoglobin (MCH), mean corpuscular haemoglobin concentration (MCHC), platelet (PLT), lymphocytes (LYMPH), monocytes (MONO), neutrophils (NEU), eosinophils (EO), and basophils (BASO).
# Biochemical parameters detected in serum included albumin, alanine aminotransferase (ALT), aspartate aminotransferase (AST), total bilirubin levels (TBIL), creatinine (CREA), gamma-glutamyl transferase (GGT), potassium, total proteins, sodium, and urea.
# Encapsulated or free R848 was i.v. administered to female BALB/C mice (8 weeks old; Charles River) at three different doses. Blood and serum samples were obtained at 24 h post-administration for acute toxicity analysis (SBCV and SHCV, Universidad Autónoma de Barcelona).
# [2] = tested on: A375 Human Melanoma cell line; experiment: In vivo fluorescence imaging biodistribution in subcutaneous tumor mice; settings: i.v. at day 14 post-tumor challenge; from 3 to 9-days after NCs injection
# Protocol: A model of immunodepressed mice have been used to conduct this experiment. Female NSG mice (9 weeks old, Charles River) were challenged by subcutaneous (s.c). injection of A375 Human Melanoma cell line (1×10^6) cells on the right flank with a 23-gauge needle. Amphoteric ICG-NCs and cationic ICG-NCs were administered i.v. at day 14 post-tumor challenge. PBS and ICG free was injected to control groups. Fluorescence was monitoring by in vivo imaging system (IVIS; Perkin Elmer, Waltham, MA, USA) using excitation/emission wavelength of 780 nm/845 nm.
compound,measurement,setting,value
"CCOCc1nc2c(N)nc3ccccc3c2n1CC(C)(C)O [Sample R848, Resiquimod]",biochemical parameters in serum with respect to untreated groups,[1],No significant differences
same,haematological parameters with respect to untreated groups,[1],No significant differences
"CC1(C)C(/C=C/C=C/C=C/C=C2\N(CCCCS(=O)(=O)[O-])c3ccc4ccccc4c3C2(C)C)=[N+](CCCCS(=O)(=O)[O-])c2ccc3ccccc3c21.[Na+] [ICG, Indocyanine Green]",fluorescence signal / accumulation in tumor locations,[2],low
